Molecular target: T1, HIS-tagged RORγ-LBD (Homo sapiens, UniProt P51449)
T1 construct: HIS-tagged RORγ-LBD was recombinantly expressed in SF9 cells using a baculovirus expression system; made in house; host or cells: SF9 cells, baculovirus; crude lysate used
T1 sequence (P51449 269-508 limits assumed): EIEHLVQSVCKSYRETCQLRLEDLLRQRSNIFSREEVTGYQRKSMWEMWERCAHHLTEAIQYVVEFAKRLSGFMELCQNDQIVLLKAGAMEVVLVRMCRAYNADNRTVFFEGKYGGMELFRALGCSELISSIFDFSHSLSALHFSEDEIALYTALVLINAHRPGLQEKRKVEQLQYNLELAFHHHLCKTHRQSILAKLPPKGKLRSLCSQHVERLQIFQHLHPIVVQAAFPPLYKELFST
Assay: TR-FRET assay (Protocol B), RORγ-LBD lysate / biotinylated SRC1-2 LXXLL peptide
Assay type: biochemical
Conditions: unpurified RORγ-LBD lysate ~10 nM, SRC1-2 peptide 450 nM
From the text: Activation of RORgammaT activity can be measured using e.g. biochemical TR-FRET assay. In such an assay, interaction of cofactor-derived peptides with human RORgammaT-Ligand Binding Domain (LBD) can be measured.
To identify novel antagonists of RORgammaT, an assay was developed which employs the interaction of RORgammaT with its co-activator peptide SRC1_2. […] The assay was run following three slightly different protocols, i.e. Protocol A, Protocol B, and Protocol C, which are described below.
TR-Fret Assay (Protocol B)
HIS-tagged RORγ-LBD was recombinantly expressed in SF9 cells using a baculovirus expression system. The protein was not purified. Cells were lysed and the lysate was used as a source for RORγ-LBD for the assay. A 1:80 dilution of RORγ-LBD lysate in assay buffer (25 mM HEPES pH 7.0, 100 mM NaCl, 0.01% Tween, 0.1% BSA) was prepared and 5 μL was added to each well (RORγ-LBD final concentration ˜10 nM). Control wells received lysate from SF9 cells not expressing RORγ-LBD.
Compounds to be tested were diluted to 100× final test concentration in DMSO and further diluted to 4× final test concentration using assay buffer to provide the test compound mixture. An aliquot (5 μL) of the test compound mixture was added to each well.

Structure (SMILES) | IC50
Cc1cc(C(=O)O)c(F)cc1-c1nn(C(=O)c2c(Cl)cccc2C(F)(F)F)c2cccc(F)c12 [Example 24K, 4-(1-(2-chloro-6-(trifluoromethyl)-benzoyl)-4-fluoro-1H-indazol-3-yl)-2-fluoro-5-methylbenzoic acid] | < 50 nM
Cc1cc(C(=O)O)ccc1-c1nn(C(=O)c2c(Cl)cccc2C(F)(F)F)c2cccc(F)c12 [Example 24L, 4-(1-(2-chloro-6-(trifluoromethyl)-benzoyl)-4-fluoro-1H-indazol-3-yl)-3-methylbenzoic acid] | < 50 nM
Cc1cc(-c2nn(C(=O)c3c(Cl)cccc3C(F)(F)F)c3cccc(F)c23)ccc1C(=O)O [Example 24P, 4-(1-(2-chloro-6-(trifluoromethyl)-benzoyl)-4-fluoro-1H-indazol-3-yl)-2-methylbenzoic acid] | < 50 nM
COc1cc(C(=O)O)ccc1-c1nn(C(=O)c2c(Cl)cccc2C(F)(F)F)c2cccc(F)c12 [Example 24Q, 4-(1-(2-chloro-6-(trifluoromethyl)-benzoyl)-4-fluoro-1H-indazol-3-yl)-3-methoxybenzoic acid] | 50 to 500 nM
O=C(O)c1c(F)cc(-c2nn(C(=O)c3c(Cl)cccc3C(F)(F)F)c3cccc(F)c23)cc1F [Example 24R, 4-(1-(2-chloro-6-(trifluoromethyl)-benzoyl)-4-fluoro-1H-indazol-3-yl)-2,6-difluorobenzoic acid] | < 50 nM
CC(C)c1cc(-c2nn(C(=O)c3c(Cl)cccc3C(F)(F)F)c3cccc(F)c23)ccc1C(=O)O [Example 24S, 4-(1-(2-chloro-6-(trifluoromethyl)-benzoyl)-4-fluoro-1H-indazol-3-yl)-2-isopropylbenzoic acid] | 500 to 10000 nM
COc1cc(C(=O)O)cc(OC)c1-c1nn(C(=O)c2c(Cl)cccc2C(F)(F)F)c2cccc(F)c12 [Example 24T, 4-(1-(2-chloro-6-(trifluoromethyl)-benzoyl)-4-fluoro-1H-indazol-3-yl)-3,5-dimethoxybenzoic acid] | > 10000 nM
N#Cc1cc(-c2nn(C(=O)c3c(Cl)cccc3C(F)(F)F)c3cccc(F)c23)ccc1C(=O)O [Example 24U, 4-(1-(2-chloro-6-(trifluoromethyl)-benzoyl)-4-fluoro-1H-indazol-3-yl)-2-cyano benzoic acid] | < 50 nM
O=C(O)c1ccc(-c2nn(C(=O)c3c(Cl)cccc3C(F)(F)F)c3cccc(F)c23)c(F)c1F [Example 24V, 4-(1-(2-chloro-6-(trifluoromethyl)-benzoyl)-4-fluoro-1H-indazol-3-yl)-2,3-difluorobenzoic acid] | < 50 nM
O=C(O)c1cc(F)c(-c2nn(C(=O)c3c(Cl)cccc3C(F)(F)F)c3cccc(F)c23)cc1F [Example 24W, 4-(1-(2-chloro-6-(trifluoromethyl)-benzoyl)-4-fluoro-1H-indazol-3-yl)-2,5-difluorobenzoic acid] | < 50 nM
O=C(O)c1cc(F)c(-c2nn(C(=O)c3c(Cl)cccc3C(F)(F)F)c3cccc(F)c23)cc1Cl [Example 24X, 2-chloro-4-(1-(2-chloro-6-(trifluoromethyl)-benzoyl)-4-fluoro-1H-indazol-3-yl)-5-fluorobenzoic acid] | 50 to 500 nM
COc1cc(-c2nn(C(=O)c3c(Cl)cccc3C(F)(F)F)c3cccc(F)c23)c(F)cc1C(=O)O [Example 24Y, 4-(1-(2-chloro-6-(trifluoromethyl)-benzoyl)-4-fluoro-1H-indazol-3-yl)-5-fluoro-2-methoxybenzoic acid] | < 50 nM
O=C(O)c1cc(-c2nn(C(=O)c3c(Cl)cccc3C(F)(F)F)c3cccc(F)c23)ccc1O [Example 24Z, 5-(1-(2-chloro-6-(trifluoromethyl)-benzoyl)-4-fluoro-1H-indazol-3-yl)-2-hydroxybenzoic acid] | > 10000 nM
O=C(O)c1ccc(-c2nn(C(=O)c3c(Cl)cccc3C(F)(F)F)c3cc(C(=O)NCCO)ccc23)cc1 [Example 25A, sodium 4-(1-(2-chloro-6-(trifluoromethyl)benzoyl)-6-(2-hydroxyethylcarbamoyl)-1H-indazol-3-yl)benzoate] | < 50 nM
CN(C)C(=O)c1ccc2c(-c3ccc(C(=O)O)cc3)nn(C(=O)c3c(Cl)cccc3C(F)(F)F)c2c1 [Example 25B, 4-(1-(2-chloro-6-(trifluoromethyl)benzoyl)-6-(dimethyl-carbamoyl)-1H-indazol-3-yl)benzoic acid] | < 50 nM
CN(C)C(=O)c1ccc2c(-c3ccc(C(=O)O)cc3F)nn(C(=O)c3c(Cl)cccc3C(F)(F)F)c2c1 [Example 25E, 4-(1-(2-chloro-6-(trifluoromethyl)benzoyl)-6-(dimethyl-carbamoyl)-1H-indazol-3-yl)-3-fluorobenzoic acid] | < 50 nM
O=C(NCCO)c1ccc2c(-c3ccc(C(=O)O)c(F)c3)nn(C(=O)c3c(Cl)cccc3C(F)(F)F)c2c1 [Example 25G, 4-(1-(2-chloro-6-(trifluoromethyl)benzoyl)-6-(2-hydroxyethyl-carbamoyl)-1H-indazol-3-yl)-2-fluorobenzoic acid] | 50 to 500 nM
O=C(O)c1ccc(-c2nn(C(=O)c3c(Cl)cccc3C(F)(F)F)c3cc(C(=O)NCCO)ccc23)c(F)c1 [Example 25H, 4-(1-(2-chloro-6-(trifluoromethyl)benzoyl)-6-(2-hydroxyethyl-carbamoyl)-1H-indazol-3-yl)-3-fluorobenzoic acid] | < 50 nM
CN(C)C(=O)c1ccc2c(-c3ccc(C(=O)O)c(F)c3)nn(C(=O)c3c(Cl)cccc3C(F)(F)F)c2c1 [Example 25I, 4-(1-(2-chloro-6-(trifluoromethyl)benzoyl)-6-(dimethyl-carbamoyl)-1H-indazol-3-yl)-2-fluorobenzoic acid] | 50 to 500 nM
CN(C)C(=O)c1ccc2c(-c3ccc(C(=O)O)cc3Cl)nn(C(=O)c3c(Cl)cccc3C(F)(F)F)c2c1 [Example 25J, 3-chloro-4-(1-(2-chloro-6-(trifluoromethyl)benzoyl)-6-(dimethyl-carbamoyl)-1H-indazol-3-yl)benzoic acid] | < 50 nM
O=C(O)c1ccc(-c2nn(C(=O)c3c(Cl)cccc3C(F)(F)F)c3cc(C(=O)NCCO)ccc23)c(Cl)c1 [Example 25K, 3-chloro-4-(1-(2-chloro-6-(trifluoromethyl)benzoyl)-6-(2-hydroxyethyl-carbamoyl)-1H-indazol-3-yl)benzoic acid] | < 50 nM
O=C(O)c1ccc(-c2nn(C(=O)c3c(Cl)cccc3C(F)(F)F)c3cc(C(=O)NCCCO)ccc23)cc1 [Example 25L, 4-(1-(2-chloro-6-(trifluoromethyl)benzoyl)-6-(3-hydroxypropyl-carbamoyl)-1H-indazol-3-yl)benzoic acid] | < 50 nM
O=C(O)c1ccc(-c2nn(C(=O)c3c(Cl)cccc3C(F)(F)F)c3cc(C(=O)NCCCO)ccc23)c(F)c1 [Example 25M, 4-(1-(2-chloro-6-(trifluoromethyl)benzoyl)-6-(3-hydroxypropyl-carbamoyl)-1H-indazol-3-yl)-3-fluorobenzoic acid] | < 50 nM
CC(O)CNC(=O)c1ccc2c(-c3ccc(C(=O)O)cc3)nn(C(=O)c3c(Cl)cccc3C(F)(F)F)c2c1 (centres unmarked) [Example 25O, 4-(1-(2-chloro-6-(trifluoromethyl)benzoyl)-6-(2-hydroxypropyl-carbamoyl)-1H-indazol-3-yl)benzoic acid] | < 50 nM
O=C(O)c1ccc(-c2nn(C(=O)c3c(Cl)cccc3C(F)(F)F)c3cc(C(=O)NCCCCO)ccc23)cc1 [Example 25P, 4-(1-(2-chloro-6-(trifluoromethyl)benzoyl)-6-(4-hydroxybutyl-carbamoyl)-1H-indazol-3-yl)benzoic acid] | < 50 nM
CN(CCO)C(=O)c1ccc2c(-c3ccc(C(=O)O)cc3)nn(C(=O)c3c(Cl)cccc3C(F)(F)F)c2c1 [Example 25Q, 4-(1-(2-chloro-6-(trifluoromethyl)benzoyl)-6-((2-hydroxyethyl) (methyl)carbamoyl)-1H-indazol-3-yl)benzoic acid] | < 50 nM
CN(CCO)C(=O)c1ccc2c(-c3ccc(C(=O)O)cc3F)nn(C(=O)c3c(Cl)cccc3C(F)(F)F)c2c1 [Example 25R, 4-(1-(2-chloro-6-(trifluoromethyl)benzoyl)-6-((2-hydroxyethyl) (methyl)carbamoyl)-1H-indazol-3-yl)-3-fluorobenzoic acid] | < 50 nM
CC(=O)Oc1cc(-c2nn(C(=O)c3c(Cl)cccc3C(F)(F)F)c3cccc(F)c23)ccc1C(=O)O [Example 26B, 2-acetoxy-4-(1-(2-chloro-6-(trifluoromethyl)benzoyl)-4-fluoro-1H-indazol-3-yl)benzoic acid] | < 50 nM
O=C(O)c1c(O)cc(-c2nn(C(=O)c3c(Cl)cccc3C(F)(F)F)c3cccc(F)c23)cc1F [Example 26D, 4-(1-(2-chloro-6-(trifluoromethyl)benzoyl)-4-fluoro-1H-indazol-3-yl)-2-fluoro-6-hydroxybenzoic acid] | < 50 nM
